Measurements published in US12139492B2 (Endotarget Inc., priority 2021, dated 2024).
Read-outs that look alike come from different tables or passages of the source.

Tests used:
Mino cells = experiment: Antiproliferative effect, MTS cell viability assay, Mino cells; assay type: cell-based; conditions: Homo sapiens, MINO, Mino mantle cell lymphoma cells; read-out: IC50 (anti-proliferation) Mino cells
Outline: (§1)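 Steps: seed B-cell lymphoma line; add compound at 0, 0.001, 0.01, 0.1, 1 or 10 μM; incubate 72 h; add MTS and read reduced tetrazolium (formazan) absorbance at 490 nm.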

JeKo-1 cells = experiment: Antiproliferative effect, MTS cell viability assay, JeKo-1 cells; assay type: cell-based; conditions: Homo sapiens; JeKo-1 mantle cell lymphoma cells; read-out: IC50 (anti-proliferation) JeKO-1 cells
Outline: as §1

BTK = BTK (Homo sapiens, UniProt Q06187); experiment: Degradation of BTK protein in Namalwa cells (Western blot; DC50, Dmax); conditions: for DC50: cell line not given
[1] = read-out: DC50 (BTK degradation), concentration giving 50% reduction of BTK expression level
[2] = read-out: Dmax (BTK degradation)

Sequence of BTK (Q06187 whole entry): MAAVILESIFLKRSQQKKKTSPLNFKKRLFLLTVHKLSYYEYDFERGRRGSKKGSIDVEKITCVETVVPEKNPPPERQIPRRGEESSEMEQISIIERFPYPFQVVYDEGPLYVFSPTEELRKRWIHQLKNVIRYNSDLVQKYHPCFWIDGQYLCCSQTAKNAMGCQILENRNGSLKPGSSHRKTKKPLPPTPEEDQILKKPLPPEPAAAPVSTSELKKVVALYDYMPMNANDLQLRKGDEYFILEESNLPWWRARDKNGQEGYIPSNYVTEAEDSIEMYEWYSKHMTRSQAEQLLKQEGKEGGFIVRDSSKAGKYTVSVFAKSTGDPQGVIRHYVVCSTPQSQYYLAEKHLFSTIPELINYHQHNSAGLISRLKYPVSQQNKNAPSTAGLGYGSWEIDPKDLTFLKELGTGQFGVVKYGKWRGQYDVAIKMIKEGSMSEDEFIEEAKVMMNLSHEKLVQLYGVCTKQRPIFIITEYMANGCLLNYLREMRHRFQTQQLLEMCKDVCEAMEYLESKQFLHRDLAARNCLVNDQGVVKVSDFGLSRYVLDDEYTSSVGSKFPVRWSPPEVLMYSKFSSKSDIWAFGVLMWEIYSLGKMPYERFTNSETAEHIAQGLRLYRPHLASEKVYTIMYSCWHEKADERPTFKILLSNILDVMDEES

Dmax (BTK) [%]	DC50 (BTK; BTK degradation) [µM]	DC50 (BTK; [1]) [µM]	Dmax (BTK; [2]) [%]	SMILES	IC50 (Mino cells) [µM]	IC50 (JeKo-1 cells) [µM]
> 90	< 0.01			Nc1ncnc2c1c(-c1ccc(Oc3ccccc3)cc1)nn2C1CCN(C2CCN(C(=O)N3CCC(CN4CCN(c5ccc6c(c5)CN(C5CCC(=O)NC5=O)C6=O)CC4)CC3)CC2)CC1 (stereo not shown) [Compound 240, 3-(5-(4-((1-(4-(4-amino-3-(4-phenoxyphenyl)-1H-pyrazolo[3,4-d]pyrimidin-1-yl)-[1,4′-bipiperidine]-1′-carbonyl)piperidin-4-yl)methyl)piperazin-1-yl)-1-oxoisoindolin-2-yl)piperidine-2,6-dione]	1 to 10	< 1
> 75	0.01 to 0.05			NC(=O)c1c(-c2ccc(Oc3ccccc3)cc2)nn2c1NCC[C@H]2C1CCN(C2CCN(C(=O)N3CCN(CC4CCN(c5ccc6c(c5)C(=O)N(C5CCC(=O)NC5=O)C6=O)CC4)CC3)CC2)CC1 (stereo partly drawn) [Compound 391, (7S)-7-(1′-(4-((1-(2-(2,6-dioxopiperidin-3-yl)-1,3-dioxoisoindolin-5-yl)piperidin-4-yl)methyl)piperazine-1-carbonyl)-[1,4′-bipiperidin]-4-yl)-2-(4-phenoxyphenyl)-4,5,6,7-tetrahydropyrazolo[1,5-a]pyrimidine-3-carboxamide]	> 10	> 10
		< 0.01	> 75	Nc1ncnc2c1c(-c1ccc(Oc3ccccc3)cc1)nn2[C@@H]1CCCN(C2CCN(C(=O)NC3CCC(=O)NC3=O)CC2)C1 (stereo partly drawn) [Compound 517, (3R)-3-(4-amino-3-(4-phenoxyphenyl)-1H-pyrazolo[3,4-d]pyrimidin-1-yl)-N-(2,6-dioxopiperidin-3-yl)-[1,4′-bipiperidine]-1′-carboxamide]	1 to 10	1 to 10
> 75	> 0.05			Nc1ncnc2c1c(-c1ccc(Oc3ccccc3)cc1)nn2C1CCN(C2CCN(CCCC3CCN(c4ccc5c(c4)C(=O)N(C4CCC(=O)NC4=O)C5=O)CC3)CC2)CC1 (stereo not shown) [Compound 225, 5-(4-(3-(4-(4-amino-3-(4-phenoxyphenyl)-1H-pyrazolo[3,4-d]pyrimidin-1-yl)-[1,4′-bipiperidin]-1′-yl)propyl)piperidin-1-yl)-2-(2,6-dioxopiperidin-3-yl)isoindoline-1,3-dione]	> 10	> 10
		0.01 to 0.05	> 90	NC(=O)c1c(-c2ccc(Oc3ccccc3)cc2)nn2c1NCC[C@H]2C1CCN(CC2CCN(C(=O)N3CCN(C4CCN(c5ccc6c(c5)CN(C5CCC(=O)NC5=O)C6=O)CC4)CC3)CC2)CC1 (stereo partly drawn) [Compound 402, (7S)-7-(1-((1-(4-(1-(2-(2,6-dioxopiperidin-3-yl)-1-oxoisoindolin-5-yl)piperidin-4-yl)piperazine-1-carbonyl)piperidin-4-yl)methyl)piperidin-4-yl)-2-(4-phenoxyphenyl)-4,5,6,7-tetrahydropyrazolo[1,5-a]pyrimidine-3-carboxamide]	< 1	1 to 10
		< 0.01	> 90	Nc1ncnc2c1c(-c1ccc(Oc3ccccc3)cc1)nn2C1CCN(C(=O)N2CC(N3CCN(c4ccc5c(c4)CN([C@@H]4CCC(=O)NC4=O)C5=O)CC3)C2)CC1 [Compound 486, (R)-3-(5-(4-(1-(4-(4-amino-3-(4-phenoxyphenyl)-1H-pyrazolo[3,4-d]pyrimidin-1-yl)piperidine-1-carbonyl)azetidin-3-yl)piperazin-1-yl)-1-oxoisoindolin-2-yl)piperidine-2,6-dione]	< 1	< 1
> 90	0.01 to 0.05			NC(=O)c1c(-c2ccc(Oc3ccccc3)cc2)nn2c1NCCC2C1CCN(CC2CCN(C(=O)N3CCC(N4CCC(c5ccc6c(c5)C(=O)N(C5CCC(=O)NC5=O)C6=O)CC4)CC3)CC2)CC1 (stereo not shown) [Compound 367, 7-(1-((1-(4-(2-(2,6-dioxopiperidin-3-yl)-1,3-dioxoisoindolin-5-yl)-[1,4′-bipiperidine]-1′-carbonyl)piperidin-4-yl)methyl)piperidin-4-yl)-2-(4-phenoxyphenyl)-4,5,6,7-tetrahydropyrazolo[1,5-a]pyrimidine-3-carboxamide]	< 1	1 to 10
		< 0.01	> 90	Nc1ncnc2c1c(-c1ccc(Oc3ccccc3)cc1)nn2C1CCN(C(=O)N2CC(N3CCN(c4ccc5c(c4)C(=O)N([C@H]4CCC(=O)NC4=O)C5=O)CC3)C2)CC1 [Compound 483, (S)-5-(4-(1-(4-(4-amino-3-(4-phenoxyphenyl)-1H-pyrazolo[3,4-b]pyrimidin-1-yl)piperidine-1-carbonyl)azetidin-3-yl)piperazin-1-yl)-2-(2,6-dioxopiperidin-3-yl)isoindoline-1,3-dione]	< 1	1 to 10
		0.01 to 0.05	> 90	Nc1ncnc2c1c(-c1ccc(Oc3ccccc3)cc1)nn2C1CCN(CCCN2CCC(CC3CCN(c4ccc(NC5CCC(=O)NC5=O)cc4)CC3)C2)CC1 (stereo not shown) [Compound 567, 3-((4-(4-((1-(3-(4-(4-amino-3-(4-phenoxyphenyl)-1H-pyrazolo[3,4-d]pyrimidin-1-yl)piperidin-1-yl)propyl)pyrrolidin-3-yl)methyl)piperidin-1-yl)phenyl)amino)piperidine-2,6-dione]	1 to 10	< 1
> 75	> 0.05			NC(=O)c1c(-c2ccc(Oc3ccccc3)cc2)nn2c1NCCC2C1CCN(C2CCN(CCN3CCN(c4ccc5c(c4)C(=O)N(C4CCC(=O)NC4=O)C5=O)CC3)CC2)CC1 (stereo not shown) [Compound 307, 7-(1′-(2-(4-(2-(2,6-dioxopiperidin-3-yl)-1,3-dioxoisoindolin-5-yl)piperazin-1-yl)ethyl)-[1,4′-bipiperidin]-4-yl)-2-(4-phenoxyphenyl)-4,5,6,7-tetrahydropyrazolo[1,5-a]pyrimidine-3-carboxamide]	1 to 10	> 10
		0.01 to 0.05	> 90	Nc1ncnc2c1c(-c1ccc(Oc3ccccc3)cc1)nn2C1CCN(C2CCN(CC3CCN(c4ccc(NC5CCC(=O)NC5=O)cc4)CC3)CC2)CC1 (stereo not shown) [Compound 578, 3-((4-(4-((4-(4-amino-3-(4-phenoxyphenyl)-1H-pyrazolo[3,4-d]pyrimidin-1-yl)-[1,4′-bipiperidin]-1′-yl)methyl)piperidin-1-yl)phenyl)amino)piperidine-2,6-dione]	1 to 10	1 to 10
> 90	< 0.01			Nc1ncnc2c1c(-c1ccc(Oc3ccccc3)cc1)nn2C1CCN(C2CCN(C(=O)N3CCC(CN4CCC(c5ccc6c(c5)C(=O)N(C5CCC(=O)NC5=O)C6=O)CC4)CC3)CC2)CC1 (stereo not shown) [Compound 243, 5-(1-((1-(4-(4-amino-3-(4-phenoxyphenyl)-1H-pyrazolo[3,4-d]pyrimidin-1-yl)-[1,4′-bipiperidine]-1′-carbonyl)piperidin-4-yl)methyl)piperidin-4-yl)-2-(2,6-dioxopiperidin-3-yl)isoindoline-1,3-dione]	1 to 10	1 to 10
		0.01 to 0.05	> 75	Nc1ncnc2c1c(-c1ccc(Oc3ccccc3)cc1)nn2C1CCN(CCCN2CCC(CN3CCC(c4ccc5c(c4)oc(=O)n5C4CCC(=O)NC4=O)CC3)C2)CC1 (stereo not shown) [Compound 543, 3-(6-(1-((1-(3-(4-(4-amino-3-(4-phenoxyphenyl)-1H-pyrazolo[3,4-d]pyrimidin-1-yl)piperidin-1-yl)propyl)pyrrolidin-3-yl)methyl)piperidin-4-yl)-2-oxobenzo[d]oxazol-3(2H)-yl)piperidine-2,6-dione]	1 to 10	1 to 10
